The NIST ThermoML archive (doi:10.1021/je7001418)
± gives the expanded uncertainty stated by the source.

Test: cn = amount concentration of the nth substance listed, in mol/dm3
Settings: 298.15 K, 101.3 kPa, Liquid; for viscosity: Capillary tube (Ostwald / Ubbelohde) method; for mass density: Pycnometric method

C[N+](C)(C)C.[I-] [tetramethylammonium iodide] + O
Settings | mass density [kg/m3] | viscosity [mPa·s]
c1 = 0.05 | 1001 ± 1 | 0.805 ± 0.008
c1 = 0.1 | 1003 ± 1 | 0.812 ± 0.008
c1 = 0.15 | 1009 ± 1 | 0.819 ± 0.008
